Reference: patent US20240207329A1, “METHODS OF TREATING ADENOCARCINOMA WITH HUMAN MICROBIOTA DERIVED N-ACYL AMIDES” (ICAHN SCHOOL OF MEDICINE AT MOUNT SINAI, priority 2021, published 2024)
pIC50: −log10 of the molar value.

What was measured:
Tumor organoids = test: Treatment of mouse tumor organoids with N-acyl amides, end-point viability by CellTiter-Glo; type: cell-based, mice; settings: for pIC50: mouse tumor organoids, viability 3 days post-drug addition, CellTiter-Glo, triplicate; for liver cancer growth and/or survival: tumor organoid dose-response curves, FIG. 7
Method: Tumor organoids were prepared from the animal model described in Example 1 (i.e. tissue from control animals was isolated at 24 weeks and tumor organoids prepared therefrom). Tumor organoids were generated according to protocols known in the art (Broutier, L., Andersson-Rolf, A., Hindley, C J., Boj, S F., Clevers, H., et al., Culture and establishment of self-renewing human and mouse adult liver and pancreas 3D organoids and their genetic manipulation. Nat Protoc. 2016. 11(9): 1724-43 and Broutier, L. Mastrogiovanni, G., Verstegen, M M., Francies, H E., Gavarro, L M., et al., Human primary liver cancer-derived organoid cultures for disease modeling and drug screening. Nat Med. 2017 23(12): 1424-1435). Liver biopsies were digested in sterile PBS containing 0.125 mg/mL collagenase IV, 0.125 mg/mL dispase II, and 0.1 mg/mL DNaseI. Digestions were performed at 37° C. for at least 4 hours. Tissue dissociate was filtered through a 70 μm strainer and washed with basal media (Advanced DMEM/F12, 1% L-glutamine, 1% penstrep, 1 mM HEPES). Cells were counted, washed, and resuspended at 50,000 cells/50 μL matrigel. 50 μL matrigel droplets were plated in 24-well plates and allowed to polymerize for 15 minutes at 37° C. Tumor dissociate was cultured in tumor media (basal media, 1:50 B27, 1 mM N-acetylcysteine, 10 mM nicotinamide, 10 nM recombinant human [Leu^15]-gastrin I, 50 ng/mL recombinant murine EGF, 100 ng/mL recombinant human FGF10, and 50 ng/mL recombinant human HGF) until organoids formed. To passage, organoids were removed from matrigel in basal media, spun down at 300 g for 5 minutes, mechanically broken via passage through a 21 g needle, washed in basal media, and re-plated in matrigel.
96-wells plates were coated with a 50:50 solution of matrigel:basal media, which was allowed to polymerize for 15 minutes at 37° C. Tumor organoids were mechanically broken as described above, counted, and seeded at 1,000 cells/well in tumor media. Following overnight incubation, serial drug dilutions were added to the tumor organoids. […] End-point viability was analyzed 3-days post-drug addition using CellTiter-Glo. Each treatment was performed in triplicate.

[1] = tested on: Human hepatocellular cancer (HCC) organoids; test: Treatment of human HCC and cholangiocarcinoma organoids, anti-tumor effects; type: cell-based; settings: triplicate
Method: Human hepatocellular cancer (HCC) organoids were prepared from patients with non alcoholic steatohpepatitis (NASH), hepatitis B virus (HBV) and hepatitis C virus (HCV). The HCC organoids were generated according to protocols known in the art (Broutier, L., Andersson-Rolf, A., Hindley, C J., Boj, S F., Clevers, H., et al., Culture and establishment of self-renewing human and mouse adult liver and pancreas 3D organoids and their genetic manipulation. Nat Protoc. 2016. 11(9): 1724-43 and Broutier, L. Mastrogiovanni, G., Verstegen, M M., Francies, H E., Gavarro, L M., et al., Human primary liver cancer-derived organoid cultures for disease modeling and drug screening. Nat Med. 2017 23(12): 1424-1435). Organoids were also prepared from a single patient with cholangiocarcinoma (ICC). N-oleoyl serinol and N-oleoyl glycine were assayed for anti-tumor effects. Each treatment was performed in triplicate. […] N-oleoyl serinol was active specifically against HCCC organoids from patients with NASH.

pIC50 (Tumor organoids; 72 h) | pIC50 (Tumor organoids) | SMILES | liver cancer growth and/or survival (Tumor organoids) | anti-tumor effects ([1]; all organoid cell lines (HCC from NASH, HBV, HCV patients; cholangiocarcinoma)) | anti-tumor effects ([1]; HCC organoids from patients with NASH)
6.90 | – | CCCCCCCC/C=C\CCCCCCCC(=O)NCCO [N-oleoyl ethanolamide, reference compound] | inhibit or reduce | – | –
< 4.00 | – | CCCCCCCC/C=C\CCCCCCCC(=O)NCC(=O)O [N-oleoyl glycine] | – | inactive | –
7.48 | – | CCCCCCCC/C=C\CCCCCCCC(=O)NC(CO)CO [N-oleoyl serinol] | inhibit or reduce | – | active
– | < 4.00 | CCCCCCCCCCCCCCCC(=O)NCC(=O)O [N-palmitoyl glycine] | – | – | –
< 4.00 | – | CCCCCCCCCCCCCCCC(=O)NC(CO)CO [palmitoyl serinol] | – | – | –
